Test results taken from patent US5521315A, “Olefin substituted long chain compounds” (priority 1993, dated 1996).

Legend:
[1] = test system: CMV promoter activity in transformed (adenovirus) cells; experiment: CMV promoter assay (gene transcription and translation; cytotoxicity in transformed cells); assay type: cell-based
How it was run: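 Reporter assay in adenovirus-transformed cells, reading CMV promoter-driven gene transcription and translation; activity reflects cytotoxic inhibition of cellular protein synthesis machinery.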

mast cell degranulation = experiment: Serotonin release assay (inhibition of mast cell degranulation); assay type: cell-based; details: 50 μM; for RELEASE-SPONT / AVERAGE % RELEASE / inhibition at 50 µM: Table 4; for RELEASE-SPONT: average corrected for spontaneous release; for AVERAGE % RELEASE: average of duplicates; for inhibition at 50 µM: Mast cell
How it was run: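 Cultured mast cells loaded with 3H-serotonin and sensitized with anti-DNP IgE for 18 h at 37 °C, then triggered with 40 ng/ml DNP-BSA for 45 min with compound in PIPES isotonic buffer pH 7.1.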

human stromal cells = experiment: PDGF-stimulated proliferation of human stromal cells; assay type: cell-based; details: Homo sapiens, 1 h; 50 ng/ml PDGF-BB; drug one hour prior; FIGS. 15 and 16; read-out: IC50, stromal cell proliferation
Method: (§1) This assay is an in vitro model for restenosis and treatment of atherosclerosis and coronary artery disease. Stromal cells were starved in serum-free media for one day and then stimulated with 50 ng/ml PDGF-BB. The drugs were added at the indicated concentrations one hour prior to PDGF stimulation. Tritiated thymidine was added for one day at the time of PDGF stimulation and the cells were harvested and counted by liquid scintillation counting 24 hrs later.
Another assay for measuring activity of the inventive compounds involves determining PDGF (platelet derived growth factor) proliferative response using human-derived stromal cells. […] Two to three days later, the stromal cells are starved in serum-free media. Twenty four hours later, the cells are treated with a stimulating agent, such as PDGF-AA, PDGF-BB or basic FGF (fibroblast growth factor) with or without IL-1α or TNF, and tritiated thymidine. Cell proliferation is determined by liquid scintillation counting.
as §1

[2] = test system: LPS-mediated release of TNF from monocytes in whole blood; experiment: Ex vivo human TNF model (LPS-stimulated whole blood); assay type: cell-based; details: lower doses, FIG. 19
Text: (§2) FIG. 19 illustrates a comparative experiment comparing CT1508, CT1524, CT1534 and CT2501 in an ex vivo human TNF model described herein. This assay is a predictive model for treatment and prevention of septic shock and sepsis syndrome. This model adds LPS to whole blood (normal human volunteers) to trigger a dose-dependent synthesis and extracellular release of TNF according to Desch et al. (Lymphokine Res. 8:141, 1989). The ex vivo model examines whether LPS-mediated release of TNF from monocytes in whole blood can be blocked by an inventive compound.
as §2, with “This example” for “FIG. 19”

[3] = test system: transformed cells (Ras 3T3) and normal 3T3 cells; experiment: Cytotoxicity in transformed cells (Ras 3T3) versus normal 3T3 cells; assay type: cell-based; details: LD50 comparison; FIG. 17
Method: Each inventive compound is investigated for cytotoxicity to determine appropriate doses for biological activity assays and to prevent cytotoxic reactions in in vitro assays when characterizing activity. Cells (e.g., NIH-3T3, Ras transformed 3T3 cells, malignant melanoma LD2 cells, etc.) are added to microtiter plates and drug is added about two days after plating. Cell viability is determined using a fluorescent viability stain (e.g., 2',7'-bis-(2-carboroxyethyl)-5-(and -6)-carboxyfluorescein acetoxymethyl ester, BCECF excitation 488 nm and emission 525 nm) 24, 48 or 72 hours after addition of the drug.
This example illustrates a comparison of cytotoxicity determinations for CT1534 and CT1539 in transformed cells (Ras 3T3) and in normal 3T3 cells to determine the in vitro LD50 value in both cell types and to look for differential cytotoxicity effects between the cell types.

[4] = test system: second messenger pathway enzymes in P388 cells (murine monocyte/macrophage line); experiment: Changes in lipid mass (DAG, PA) in P388 cells after signal stimulation; assay type: cell-based; details: 30 second time point, FIGS. 20-22
Method: (§3) FIGS. 20-22 illustrate the effect of one inventive compound (CT1534) on the substates and products of the present second messenger pathway. Various concentrations of CT1534 were incubated with P388 cells (a murine monocyte/macrophage line) and changes in lipid mass determined at 0 time, 30 seconds and 60 seconds after signal stimulation. FIGS. 20-22 show the 30 second time point for two DAG peaks and a PA peak.
as §3, with “This example illustrates” for “FIGS. 20-22 illustrate”

[5] = test system: PBMC (peripheral blood mononuclear cells); experiment: Two-way mixed lymphocyte reaction (MLR), proliferation of PBMC to allogeneic stimulation; assay type: cell-based, human; details: FIGS. 1 and 2
Text: Various in vitro assays can be used to measure effects of the inventive compounds to module immune activity and have antitumor activity using a variety of cellular types. For example, a mixed lymphocyte reaction (MLR) provides a valuable screening tool to determine biological activity of each inventive compound. In the MLR, PBMCs (peripheral blood mononuclear cells) are obtained by drawing whole blood from healthy volunteers in a heparinized container and diluted with an equal volume of hanks balanced salt solution (HBSS). This mixture is layered on a […] density gradient, such as a Ficoll-Hypaque® gradient (specific gravity 1.08), and centrifuged at 1000×g for 25 minutes at room temperature or cooler. PBMC are obtained from a band at a plasma-Ficoll interface, separated and washed at least twice in a saline solution, such as HBSS. Contaminating red cells are lysed, such as by ACK lysis for 10 min at 37° C., and the PBMCs are washed twice in HBSS. The pellet of purified PBMCs is resuspended in complete medium, such as RPMI 1640 plus 20% human inactivated serum. Proliferative response of PBMC to allogeneic stimulation is determined in a two-way MLR performed in a 96-well microliter plate. Briefly, approximately 10^5 test purified PBMC cells in […] complete medium are co-cultured with approximately 10^5 autologous (control culture) or allogeneic (stimulated culture) PBMC cells, wherein the allogeneic cells are from HLA disparate individuals. Varying doses of compounds (drug) are added at the time of addition of cells to the microtiter plate. The cultures are incubated for 6 days at 37° C. in a 5% CO2 atmosphere. At the conclusion of the incubation tritiated thymidine is added (for example, […] of 40 to 60 Ci/mmole) and proliferation determined by liquid scintillation counting.
This example illustrates a mixed lymphocyte reaction assay of inventive compounds by showing the IC50 value of each compound in this assay and a dose response of several compounds to illustrate an IC50 determination.

[6] = test system: PBMC in mixed lymphocyte assay culture; experiment: Percent viable cells in mixed lymphocyte assay culture after six days; assay type: cell-based, human
murine thymocyte = experiment: Murine thymocyte stimulated by ConA and IL-2 (T cell immune suppression); assay type: cell-based; details: FIGS. 8 and 9
Method: A thymocyte costimulator assay is conducted to evaluate the inventive compounds to inhibit activation and proliferation of thymocytes caused by stimulation with Con A and interleukin-1 (IL-1), or […]. Thymuses are obtained from mice (e.g., female Balb/C mice) and the thymuses are removed and dissociated into culture media (e.g., RPMI 1640 without serum supplementation). The dissociated thymus tissue and cell suspension is transferred to centrifuge tubes and allowed to settle, washed with HBSS and resuspended in serum-supplemented culture media (e.g., RPMI 1640 with 10% fetal calf serum). Any contaminating red cells are lysed, and viable cells are resuspended and counted. Thymocytes are plated (e.g., 96-well plates at a density of 2×10^5 cells/well) and a stimulating agent, such as Con A, IL-1 (e.g., IL-1α) or IL-2 is added to the well. The cells are incubated for 4 days at 37° C. On the fourth day, the cells are pulsed with tritiated thymidine and cell proliferation determined. Inventive compounds are added at the time of stimulating agent addition.
A third assay measures an ability of an inventive compound to inhibit IL-2-induced proliferation of murine thymocytes. Thymus glands are obtained from 4-6 week old mice and plated as a single cell suspension into flat bottomed wells in RPMI 1640 medium supplemented with 10% fetal calf serum. The inventive compounds are added to appropriate wells and the cells are incubated for 1-2 hrs. Concanavilin A (ConA, 0.25 mg/ml) and […] (20 ng/ml) are added and the plates are incubated for 4 days. Cell proliferation is determined as above.
FIG. 8 compares T cell immune suppression data of thirteen inventive compounds by comparing their IC50 values in a murine thymocyte stimulated by ConA and IL-2 in vitro model.

[7] = test system: murine lymph node cell (T cell) proliferation; experiment: Murine lymph node cell proliferation stimulated by antigen; assay type: cell-based; details: Mus musculus, 2 h, drug two hours prior, FIG. 11
Text: A second immune suppression assay measures a T cell component to the immune reaction. Lymph nodes contain a mixture of cells including T cells, B cells and macrophages. Although the proliferating cells in this assay are T cells, the response is also dependent upon an antigen presenting cell such as a macrophage as well as an elaboration of various immunoregulatory cytokines. Murine T cells will proliferate in vitro in response to a soluble o protein antigen if they are first primed with the antigen in vivo. In vivo priming involves emulsifying the antigen (chicken ovalbumin or OVA) in complete Freunds adjuvant and injecting […] of OVA into both hind footpads of adult Balb/c mice. Fourteen days later the draining lymph nodes (popliteal) are removed and a single cell suspension is prepared in RPMI 1640 supplemented with 10% fetal calf serum. The lymph node cells (200,000) are plated into flat-bottom wells and OVA ([…]) and/or drug is added to appropriate wells and incubated for 5 days. Proliferation is determined and IC50's calculated as above.
This example illustrates the effects of four inventive compounds on inhibition of murine lymph node cell proliferation stimulated by antigen. This assays uses murine T cells that proliferate in vitro in response to a soluble protein antigen that is first used to prime the T cells in vivo. […]

| Compound | IC50 [1] [µM] | activity in serotonin release assay (mast cell degranulation) | RELEASE-SPONT (mast cell degranulation) [%] | AVERAGE % RELEASE (mast cell degranulation) [%] | inhibition at 50 µM (mast cell degranulation) [%] | IC50 (human stromal cells) [µM] | inhibition of LPS-mediated TNF release [2] | differential cytotoxicity, transformed vs normal cells [3] | plateau concentration for inhibition of second messenger signaling ([4]; DAG and PA peaks) | inhibition of second messenger signaling enzymes [4] | mixed lymphocyte reaction activity [5] | cytotoxicity in mixed lymphocyte assay culture ([6]; 100 μM, six days of culture) | therapeutic window ([6]; cytotoxicity at 100 μM vs MLR IC50) | T cell immune suppressing activity (murine thymocyte) | IC50 [7] [µM] |
| --- | --- | --- | --- | --- | --- | --- | --- | --- | --- | --- | --- | --- | --- | --- | --- |
| CC/C=C\CCCCCn1c(=O)c2c(ncn2C)n(C)c1=O [CT1508, 1-(6-cis-nonenyl)-3,7-dimethylxanthine] | 75 | increases the activity | 3.38 | 19.94 | 57.9 | < 2 | the most effective agent |  |  |  |  |  |  |  |  |
| C=CCCCCCn1c(=O)c2c(ncn2C)n(C)c1=O [CT1534, 1-(6-heptenyl)-3,7-dimethylxanthine] | > 500 |  | 5.47 | 22.02 | 31.9 |  |  | much more cytotoxic for the transformed cell than the normal cell | around 10 μM | inhibits the enzymes involved in second messenger signaling to an inflammatory stimulus in a dose-response fashion |  |  |  |  |  |
| C=CCCCCCCCCn1c(=O)c2c(ncn2C)n(C)c1=O [CT1563, 1-(9-Decenyl)-3,7-dimethylxanthine] | 50 |  | 7.43 | 23.98 | 7.39 |  |  |  |  |  | showed activity within dose ranges achievable in vivo | the most cytotoxic at 100 μM | significant therapeutic window | potent immune suppressing activity | ~15 |
